{"source": "PubChem BioAssay AID1259410", "about": "(Chemical Carcinogenesis Research Information System (CCRIS), 2018)", "origin": "cited, not measured here", "system": "rodent tumor promotion studies, tumor incidence", "assay": "CCRIS tumor promotion studies", "data": [{"smiles": "Cn1cc[nH]c1=S", "values": [{"measurement": "outcome", "setting": "Carcinogen: Acrylonitrile, 79-06-1, Doses [Carcinogen]: 2-3 mg/kg in drinking water, study duration 2 mo, Doses [Promoter]: 100 mg/l in drinking water, study duration 2 mo, Route [Carcinogen]: Oral, Route [Promoter]: Oral, Species: Mouse, Strain/Sex: CD1/Female (20,?)/(30/ ?)", "value": "thyroid; no tumors"}]}, {"smiles": "CCCCCCCCCCCCCCCCCCCCCCCCCCCC", "values": [{"measurement": "outcome", "setting": "Carcinogen: 7,12-DIMETHYLBENZ(A)ANTHRACENE, Doses [Carcinogen]: TOP, Route [Carcinogen]: DERMAL, Route [Promoter]: DERMAL, Species: MOUSE, Strain/Sex: MALE", "value": "integumentary system (skin)"}]}]}
